# Experimental data: patent US20260166039A1 (SCHRÖDINGER, INC., priority 2022, published 2026)
# Molecular target: T1, Wee1 kinase domain (Homo sapiens, UniProt P30291)
# T1 construct: Wee1 kinase domain was purchased from Carna (catalog #05-177); purchased Carna 05-177
# Test: Wee1 Kinase Biochemical Assay (ADP-Glo)
# Settings: 1 nM Wee1 enzyme, 15 uM ATP, 4 hours at 25° C
# Procedure, shortened: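 ADP-Glo luminescence readout of ADP produced by 1 nM kinase domain phosphorylating Poly(Lys,Tyr 4:1) (2 ng/mL) at 15 uM ATP. Reaction ran 4 h, 25 °C, in Tris/MgCl2 buffer with BSA and DTT. Inhibition scaled between DMSO (high) and saturating control inhibitor (low).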
# T1 sequence (P30291 299-569 limits assumed): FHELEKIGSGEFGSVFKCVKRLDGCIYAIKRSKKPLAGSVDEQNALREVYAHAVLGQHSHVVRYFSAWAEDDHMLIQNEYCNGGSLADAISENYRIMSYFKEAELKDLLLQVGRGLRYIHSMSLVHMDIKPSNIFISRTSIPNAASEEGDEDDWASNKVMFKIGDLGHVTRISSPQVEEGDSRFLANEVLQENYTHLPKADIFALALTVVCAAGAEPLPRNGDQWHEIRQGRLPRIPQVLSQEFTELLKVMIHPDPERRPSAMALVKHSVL
row,IC50 [nM],Compound
1,< 10,"CC1(C)C[C@H]2N(c3cccc(N=S(C)(C)=O)n3)c3nc(Nc4cncc(C(F)F)c4)ncc3[C@@]2(C)CO1 (single isomer, unassigned) [Example 815]"
2,< 10,"Cc1cc(Nc2ncc3c(n2)N(c2cccc(N=S(C)(C)=O)n2)C2CC(C)(C)OCC32C)cc(=O)n1C (single isomer, unassigned) [Example 816]"
3,< 10,"CC1(C)C[C@H]2N(c3cccc(N=S(C)(C)=O)n3)c3nc(Nc4cncnc4)ncc3[C@@]2(C)CO1 (single isomer, unassigned) [Example 817]"
4,< 10,"CC1(C)C[C@H]2N(c3cccc(N=S(C)(C)=O)n3)c3nc(Nc4cncc(C#N)c4)ncc3[C@@]2(C)CO1 (single isomer, unassigned) [Example 818]"
5,< 10,"CN(C)C1CCN(c2ccc(Nc3ncc4c(n3)N(c3ccccn3)[C@@H]3CC(C)(C)OC[C@]43C)cc2)CC1 (single isomer, unassigned) [Example 819]"
6,< 10,"CN1CCCC12CCN(c1ccc(Nc3ncc4c(n3)N(c3ccccn3)[C@@H]3CC(C)(C)OC[C@]43C)cc1)CC2 (single isomer, unassigned) [Example 823]"
7,< 10,"CC1(C)C[C@H]2N(c3cccc(N=S(C)(C)=O)n3)c3nc(Nc4ccn(C5CCN(C6COC6)CC5)c(=O)c4)ncc3[C@@]2(C)CO1 (single isomer, unassigned) [Example 824]"
8,< 10,"COCCN1CCC(n2ccc(Nc3ncc4c(n3)N(c3cccc(N=S(C)(C)=O)n3)[C@@H]3CC(C)(C)OC[C@]43C)cc2=O)CC1 (single isomer, unassigned) [Example 825]"
9,< 10,"CN1CCN(c2ccc(Nc3ncc4c(n3)N(c3ccc(=O)n(C)n3)[C@@H]3CC(C)(C)OC[C@]43C)cc2)CC1 (single isomer, unassigned) [Example 826]"
10,< 10,"CN1CCN(c2ccc(Nc3ncc4c(n3)N(c3cnccn3)[C@@H]3CC(C)(C)OC[C@]43C)cc2)CC1 (single isomer, unassigned) [Example 827]"
11,< 10,"CN1CCN(c2ccc(Nc3ncc4c(n3)N(c3cccnn3)[C@@H]3CC(C)(C)OC[C@]43C)cc2)CC1 (single isomer, unassigned) [Example 828]"
12,< 10,"CC(C)n1nc(N2c3nc(Nc4ccc(N5CCN(C)CC5)cc4)ncc3[C@@]3(C)COC(C)(C)C[C@@H]23)ccc1=O (single isomer, unassigned) [Example 829]"
13,< 10,"CCn1ccc(Nc2ncc3c(n2)N(c2cccc(N=S(C)(C)=O)n2)[C@@H]2CC(C)(C)OC[C@]32C)n1 (single isomer, unassigned) [Example 830]"
14,< 10,"CC1(C)C[C@H]2N(c3cccc(N=S(C)(C)=O)n3)c3nc(Nc4ccn(C5CC5)n4)ncc3[C@@]2(C)CO1 (single isomer, unassigned) [Example 831]"
15,< 10,"CC(C)n1ccc(Nc2ncc3c(n2)N(c2cccc(N=S(C)(C)=O)n2)[C@@H]2CC(C)(C)OC[C@]32C)n1 (single isomer, unassigned) [Example 832]"

# Same assay, conditions: Wee1 kinase domain, 15 uM ATP, ADP-Glo
row,IC50 [nM],Compound
1,10 to 100,"CNCc1cccc(N2c3nc(Nc4ccc(N5CC6CC5CO6)cc4)ncc3[C@]3(C)COC(C)(C)C[C@H]23)n1 (stereo in doubt) [Example 42, (4bS,8aS)-N-(4-((1R,4R)-2-oxa-5-azabicyclo[2.2.1]heptan-5-yl)phenyl)-4b,7,7-trimethyl-9-(6-((methylamino)methyl)pyridin-2-yl)-4b,5,7,8,8a,9-hexahydropyrano[3′,4′:4,5]pyrrolo[2,3-d]pyrimidin-2-amine]"
2,100 to 1000,"CNCc1cccc(N2c3nc(Nc4ccc(N5C[C@@H](C)O[C@@H](C)C5)cc4)ncc3[C@]3(C)COC(C)(C)C[C@H]23)n1 [Example 19, (4bS,8aS)-N-(4-((2S,6R)-2,6-dimethylmorpholino)phenyl)-4b,7,7-trimethyl-9-(6-((methylamino)methyl)pyridin-2-yl)-4b,5,7,8,8a,9-hexahydropyrano[3′,4′:4,5]pyrrolo[2,3-d]pyrimidin-2-amine]"
3,≥ 1000,"CNCc1cccc(N2c3nc(NC45CC(C4)C5)ncc3[C@@]3(C)COC(C)(C)C[C@@H]23)n1 [Example 89, (4bR,8aR)-N-(bicyclo[1.1.1]pentan-1-yl)-4b,7,7-trimethyl-9-(6-((methylamino)methyl)pyridin-2-yl)-4b,5,7,8,8a,9-hexahydropyrano[3′,4′:4,5]pyrrolo[2,3-d]pyrimidin-2-amine]"
4,100 to 1000,"CN1CCN(c2ccc(Nc3ncc4c(n3)N(c3cccc(N=S(C)(C)=O)n3)[C@H]3CC(C)(C)OC[C@@]43C)cc2)CC1 [Example 99, dimethyl((6-((4bS,8aS)-4b,7,7-trimethyl-2-((4-(4-methylpiperazin-1-yl)phenyl)amino)-4b,7,8,8a-tetrahydropyrano[3′,4′:4,5]pyrrolo[2,3-d]pyrimidin-9(5H)-yl)pyridin-2-yl)imino)-16-sulfanone]"

# Same assay, conditions: class symbols; 1 nM Wee1 enzyme, 15 uM ATP, 4 hours at 25° C.
row,IC50 [nM],Compound
1,10 to 100,"CNCc1cccc(N2c3nc(NC(=O)C4CC4)ncc3[C@@]3(C)COC(C)(C)C[C@@H]23)n1 (single isomer, unassigned) [Example 762]"
2,10 to 100,"CN1CC[C@H](OC(=O)Nc2ncc3c(n2)N(c2cccc(N=S(C)(C)=O)n2)[C@@H]2CC(C)(C)OC[C@]32C)C1 (single isomer, unassigned) [Example 773]"
3,< 10,"CN1CC2(C1)CN(c1ccc(Nc3ncc4c(n3)N(c3cccc(N5C(=O)OCC5(C)C)n3)[C@@H]3CC(C)(C)OC[C@]43C)cc1)C2 (single isomer, unassigned) [Example 785]"
4,< 10,"CN1CC2(C1)CN(c1ccc(Nc3ncc4c(n3)N(c3cccc(N5C(=O)CCC5(C)C)n3)[C@@H]3CC(C)(C)OC[C@]43C)cc1)C2 (single isomer, unassigned) [Example 786]"
5,< 10,"CC1(C)C[C@H]2N(c3cccc(N=S(C)(C)=O)n3)c3nc(Nc4ccn(C5CCC5)c(=O)c4)ncc3[C@@]2(C)CO1 (single isomer, unassigned) [Example 802]"
6,< 10,"CN1C[C@@H]2CN(c3ccc(Nc4ncc5c(n4)N(c4ccccn4)[C@@H]4CC(C)(C)OC[C@]54C)cc3)C[C@@H]2C1 (single isomer, unassigned) [Example 803]"
7,< 10,"CN1CCC(n2ccc(Nc3ncc4c(n3)N(c3ccccn3)[C@@H]3CC(C)(C)OC[C@]43C)cc2=O)CC1 (single isomer, unassigned) [Example 806]"
8,< 10,"CN1CCN(c2ccc(Nc3ncc4c(n3)N(c3cccc(C(F)F)n3)[C@@H]3CC(C)(C)OC[C@]43C)cc2)CC1 (single isomer, unassigned) [Example 807]"
9,10 to 100,"C[C@H]1CCC(=O)N1c1cccc(N2c3nc(Nc4cnn(C5CCN(C)CC5)c4)ncc3C3(C)COC(C)(C)CC23)n1 (stereo in doubt) [Example 555, (S)-5-methyl-1-(6-((4bS,8aS)-4b,7,7-trimethyl-2-((1-(1-methylpiperidin-4-yl)-1H-pyrazol-4-yl)amino)-4b,7,8,8a-tetrahydropyrano[3′,4′:4,5]pyrrolo[2,3-d]pyrimidin-9(5H)-yl)pyridin-2-yl)pyrrolidin-2-one]"
10,10 to 100,"CC1(C)CC2N(c3cccc([C@@H]4COCCN4)n3)c3nc(Nc4ccc(N5CCOCC5)cc4)ncc3C2(C)CO1 (stereo in doubt) [Example 733, (4bS,8aS)-4b,7,7-trimethyl-9-(6-((R)-morpholin-3-yl)pyridin-2-yl)-N-(4-morpholinophenyl)-4b,5,7,8,8a,9-hexahydropyrano[3′,4′:4,5]pyrrolo[2,3-d]pyrimidin-2-amine]"
